Assays:
[1] = system: ovariectomized (OVX) rats, lumbar spine; test: Lumbar vertebral bone mineral measurements (DXA) in OVX rats, combination and sequential treatment; assay type: in vivo, female Sprague-Dawley rats
Procedure: One hundred and four female Sprague-Dawley rats (Charles River, Wilmington, Mass.) at 12 months of age were sham-operated or ovariectomized (OVX) at month 0. Three months post-surgery, OVX rats were treated with either Prostaglandin E2 (PGE2), a known anabolic bone agent, at 3 mg/kg/day (subcutaneously injection), or PGE2 at 3 mg/kg/day (subcutaneously injection) combined with droloxifene (DRO) at 10 mg/kg/day (orally) for 2 months. Thereafter, the PGE2 treatment was withdrawn and the rats were then treated with either vehicle (10% alcohol in saline) or DRO (10 mg/kg/day, orally) for another one and a half months as described in the following.
Group VIII: Eight OVX rats were subcutaneously injected with 3 mg/kg/day of PGE2 from months 3 to 5, and autopsied at month 5.
Group IX: Eight OVX rats were subcutaneously injected with 3 mg/kg/day of PGE2 from months 3 to 5, and vehicle from 5 to 6.5 months, and then autopsied at month 6.5.
Group X: Eight OVX rats were subcutaneously injected with 3 mg/kg/day of PGE2 from months 3 to 5, and 10 mg/kg/day of DRO orally from 5 to 6.5 months, and then autopsied at month 6.5.
Group XI: Eight OVX rats were subcutaneously injected with 3 mg/kg/day of PGE2 and 10 mg/kg/day of DRO orally from months 3 to 5, and then autopsied at month 5.
Group XII: Eight OVX rats were subcutaneously injected with 3 mg/kg/day of PGE2 and 10 mg/kg/day of DRO orally from months 3 to 5, and vehicle from months 5 to 6.5, then autopsied at month 6.5.
Group XIII: Eight OVX rats were subcutaneously injected with 3 mg/kg/day of PGE2 and 10 mg/kg/day of DRO orally from months 3 to 5, and DRO alone from months 5 to 6.5, then autopsied at month 6.5.
Both PGE2 (Cayman Chemical Co., Ann Arbor, Mich.) or droloxifene (Pfizer Inc. Groton, Conn.) powder was first dissolved in 100% ethanol and further diluted with saline into desired concentrations (final ethanol concentration was 10%). A PGE2 solution was daily injected subcutaneously on the back at 1 ml/kg. A droloxifene solution was given daily p.o. at 1 ml/rat.
Dual energy x-ray absorptiometry (QDR 1000/W, Hologic, Inc., Waltham, Mass.) equipped with a “Regional High Resolution Scan” software (Hologic, Inc., Waltham, Mass.) was used to determined the bone area, bone mineral content (BMC), and bone mineral density (BMD) of whole lumbar spine and each of the six lumbar vertebrae (LV1-6) in the anesthetized rats. The rats were anesthetized by injection (i.p.) of 1 ml/kg of a mixture of ketamine/rompun (ratio of 4 to 3), and then placed on the rat platform. The scan field sized was 6×1.9 cm, resolution was 0.0254×0.0127 cm, and scan speed was 7.25 mm/sec. The whole lumbar spine scan image was obtained and analyzed. Bone area (BA), and bone mineral content (BMC) were determined, and bone mineral density was calculated (MBC divided by BA) for the whole lumbar spine and each of the six lumbar vertebrae (LV1-6).

[2] = system: Ovariectomized Rats; conditions: cited from earlier work
[3] = system: Osteogenic Female Rat Skeleton; conditions: risedronate administered after discontinuing PGE2; cited from earlier work
[4] = OVX rats, PGE2 3 mg/kg/day months 3 to 5, then vehicle months 5 to 6.5

With `CC/C(=C(/c1ccc(OCCN(C)C)cc1)c1cccc(O)c1)c1ccccc1` [DRO, phenol, 3-[1-[4[2-(dimethylamino)ethoxy]phenyl]-2-phenyl-1-butenyl]-, (E)-] the “Effect of DRO on the anabolic effects of PGE2” value ([1]; OVX rats, DRO 10 mg/kg/day orally combined with PGE2 3 mg/kg/day s.c. for 2 months) was “did not blunt”, the “Maintenance of PGE2-restored bone after discontinuation of PGE2” value ([1]; OVX rats, PGE2 months 3 to 5, then DRO 10 mg/kg/day orally months 5 to 6.5) was “completely maintained” and the “Bone loss in the lumbar spine when PGE2 was withdrawn and DRO continued for another 1.5 months” value ([1]; OVX rats, PGE2 plus DRO months 3 to 5, then DRO alone 10 mg/kg/day months 5 to 6.5) was “no bone loss”.

In the case of `O=C(c1ccc(OCCN2CCCCC2)cc1)c1c(-c2ccc(O)cc2)sc2cc(O)ccc12` [raloxifene, 6hydroxy-2-(4-hydroxyphenyl)-3-[4-(2-piperidinoethoxy)benzoyl]benzo[b]thiophene], the “Action on bone and lipids” value ([2]; compared with estrogen) is listed as “mimics the favorable action of estrogen” and the Uterine stimulatory effect ([2]; unlike estrogen) is listed as “minimal”.

For `O=P(O)(O)C(O)(Cc1cccnc1)P(=O)(O)O` [risedronate], the “Time for which most of the new cancellous and cortical bone induced by PGE2 is maintained after discontinuing PGE2” value [3] is listed as “at least 60 days”.

In the case of `CCCCC[C@H](O)/C=C/[C@H]1[C@H](O)CC(=O)[C@@H]1C/C=C\CCCC(=O)O` [PGE2, Prostaglandin E2], the “BMC of LV2 upon PGE2 cessation of treatment” value [1, 4] is reported as “significant decrease”, the “BMD of LV1, LV2, and LV3 upon PGE2 cessation of treatment” value [1, 4] is reported as “significant decrease” and the “BMC and BMD of whole lumbar spine and lumbar vertebrae versus sham control levels” value ([1]; rats 3 months post-OVX, treated for 2 months (months 3 to 5), PGE2 3 mg/kg/day s.c., DRO 10 mg/kg/day orally) is reported as “completely restored”.

From US7255984B2, “Combination therapy for osteoporosis” (Pfizer Inc., priority 1996, dated 2007)
